“Also recorded” adds a separate entry of the source.
What was measured:
[1] = test system: B16F10 or LLC (Lewis Lung Cancer) cells; experiment: Syngeneic tumor mice models, statements covering both B16F10 and LLC; format: in vivo, C57BL6 mice
Method: 5×10^5 LLC or 5×10^5 B16F10 cells were injected sub cutaneously in the right flank of C57BL6 mice. Mice received HEI3090 (ip, 2.5 mg/kg in 10% DMSO/PBS) daily or placebo (10% DMSO/PBS). A,C. incidence of tumor appearance B,D. Tumor size (mm2) and tumor weight at sacrifice day (J12). E. HEI-treated tumors are more immunogenic. Expression of CMH1 (H2K^b/D^b) and PD-L1 by LLC (black) and B16F10 (grey) tumors is shown in dot plots. Numbers highlighted the percentage of tumor cells positive for H2K^b/D^b and PD-L1. […] F. CD-45 positive infiltrates is increased in LLC and B16F10 tumors. *, p<0.05; **, p<0.01; ***, p<0.001 Mann-Whitney test.
5×10^5 LLC or 5×10^5 B16F10 cells were injected sub cutaneously in the right flank of C57BL6 mice. Mice received HEI3090 (ip, 2.5 mg/kg in 10% DMSO/PBS) daily or placebo (10% DMSO/PBS). A. The quantity of immunosuppressive cells is reduced. Dot plot of representative experiment. Numbers highlighted the percentage of M-MDSC and PMN-MDSC. […] B. The quantity of effector T cells ([…], NK, CD4+) is increased.
4.2. By killing tumoral cells, HEI3090 may represent a new anti-tumor treatment. To test this hypothesis, immunocompetent C57B16J mice were subcutaneously injected with 5×10^5 B16F10 or 5×10^5 LLC (Lewis Lung Cancer) cells and treated daily with HEI3090 (ip, 2.5 mg/kg in 10% DMSO/PBS) or placebo (10% DMSO/PBS). […] In both tumor mice models, tumors weight in the treated group was reduced by 10-fold in the B16F10 model (8 mg vs 81 mg) and by 4-folds in the LLC model (80 mg vs 295 mg). Of interest, tumors from the HEI3090 treated group are more immunogenic than tumors from the placebo group.

[2] = molecular target: T1, mouse P2RX7 (Mus musculus, UniProt Q9Z1M0); experiment: Calcium influx and large cation permeation by FACS, 15 min, HEK cells with mouse P2RX7, increasing doses of BzATP; format: cell-based; details: 15 min stimulation
T1 construct: expressed in transfected cells; host or cells: HEK cells
T1 sequence (Q9Z1M0 1-595): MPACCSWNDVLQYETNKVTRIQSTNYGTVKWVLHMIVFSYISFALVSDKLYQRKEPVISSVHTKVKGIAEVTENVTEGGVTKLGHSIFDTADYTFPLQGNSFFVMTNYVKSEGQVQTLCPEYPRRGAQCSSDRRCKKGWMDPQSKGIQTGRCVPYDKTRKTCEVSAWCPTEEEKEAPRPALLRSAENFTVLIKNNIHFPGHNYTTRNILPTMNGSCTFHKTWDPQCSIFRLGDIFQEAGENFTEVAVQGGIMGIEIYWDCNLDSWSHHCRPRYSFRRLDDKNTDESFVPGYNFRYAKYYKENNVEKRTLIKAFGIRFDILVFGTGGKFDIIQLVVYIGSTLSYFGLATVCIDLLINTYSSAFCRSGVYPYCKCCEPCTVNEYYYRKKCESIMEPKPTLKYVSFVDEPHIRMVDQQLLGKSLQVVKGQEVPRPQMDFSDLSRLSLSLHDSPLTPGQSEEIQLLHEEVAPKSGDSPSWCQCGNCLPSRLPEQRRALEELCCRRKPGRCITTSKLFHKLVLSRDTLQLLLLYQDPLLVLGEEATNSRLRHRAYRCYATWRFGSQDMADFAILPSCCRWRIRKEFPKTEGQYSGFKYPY
Method: Calcium influx (Fluo-AM positive cells) and large cation permeation (Topro3 positive cells) were assayed by FACS 15 min after stimulation of HEK cells transfected with the mouse P2RX7 treated with increasing doses of BzATP.
(§1) Complementary analyses were also performed to document the biological activity of HEI3090, the more soluble version of HEI2328, on both HEK cells expressing mouse P2RX7 (mP2RX7) (FIG. 14) or human P2RX7 (hP2RX7) (FIG. 15). BzATP or ATP stimulate channel activity, an event that occurred in the first minutes of P2RX7 stimulation. […] The same positive effect was observed on cells expressing human P2RX7 (FIG. 15).

[3] = test system: P2RX7; experiment: Large pore opening in splenocytes from control or p2rx7 KO mice; format: cell-based, mouse; details: HEI3090 50 μM, BzATP 500 μM
Method: A. Splenocytes from control or p2rx7^exon2 KO mice were isolated and treated with HEI3090 (50 μM) in presence of absence of BzATP (500 μM). B. Large pore opening induced by increasing concentration of BzATP in presence or absence of HEI3090 in human P2RX7 expressing cells.
Indeed, with the same BzATP concentration, more cells are positive for Topro3 staining.

[4] = molecular target: T2, human P2RX7 (Homo sapiens, UniProt Q99572); experiment: Calcium influx and large cation permeation by FACS, 15 min, HEK cells with human P2RX7, increasing doses of HEI3090; format: cell-based; details: increasing doses of HEI3090, 7.8 μM BzATP
T2 construct: expressed in transfected cells; host or cells: HEK cells
T2 sequence (Q99572 1-595): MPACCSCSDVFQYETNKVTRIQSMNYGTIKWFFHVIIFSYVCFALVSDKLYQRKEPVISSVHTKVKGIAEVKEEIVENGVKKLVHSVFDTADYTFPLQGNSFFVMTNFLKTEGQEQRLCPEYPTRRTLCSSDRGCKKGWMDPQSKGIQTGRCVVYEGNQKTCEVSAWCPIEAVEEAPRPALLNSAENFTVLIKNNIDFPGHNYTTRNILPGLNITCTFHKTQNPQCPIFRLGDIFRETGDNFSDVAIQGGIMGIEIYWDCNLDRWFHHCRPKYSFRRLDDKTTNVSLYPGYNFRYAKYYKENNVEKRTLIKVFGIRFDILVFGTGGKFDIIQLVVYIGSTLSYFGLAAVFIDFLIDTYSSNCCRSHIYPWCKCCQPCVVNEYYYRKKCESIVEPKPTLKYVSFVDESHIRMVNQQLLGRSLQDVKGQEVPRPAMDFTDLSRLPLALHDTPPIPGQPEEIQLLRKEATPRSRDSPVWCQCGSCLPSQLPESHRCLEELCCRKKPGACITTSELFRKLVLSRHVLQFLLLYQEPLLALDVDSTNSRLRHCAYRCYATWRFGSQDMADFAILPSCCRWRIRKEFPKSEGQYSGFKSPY
Method: Calcium influx (Fluo-AM positive cells) and large cation permeation (Topro3 positive cells) were assayed by FACS 15 min after stimulation of HEK cells transfected with the human P2RX7 that were treated with increasing doses of HEI3090 in the presence of 7.8 μM BzATP.
as §1

Question: Which results are given for O=C(NCc1ccc(Cl)cc1Cl)[C@@H]1CCC(=O)N1C(=O)Nc1ccc(Cl)nc1 [HEI3090, (S)—N^1-(6-Chloropyridin-3-yl)-N^2-(2,4-dichlorobenzyl)-5-oxopyrrolidine-1,2-dicarboxamide]?
Answer: CD45 positive cells in tumors ([1]; HEI3090 ip 2.5 mg/kg daily): enriched with CD45 positive cells; delay of tumor appearance ([1]; HEI3090 ip 2.5 mg/kg daily): 1 to 4 days; ratio between effector cells (Tγδ, NK, CD4+) and total MDSC ([1]; HEI3090 ip 2.5 mg/kg daily): in favor to effector cells; tumor expression of PD-L1 vs placebo ([1]; HEI3090 ip 2.5 mg/kg daily): 2 fold; tumor expression of major complex histocompatibility 1 (MCH1) vs placebo ([1]; HEI3090 ip 2.5 mg/kg daily): 2 fold; tumor growth ([1]; HEI3090 ip 2.5 mg/kg daily): potently inhibits tumor growth; tumor volume and tumor weight ([1]; HEI3090 ip 2.5 mg/kg daily, sacrifice day J12): drastically reduced; overall mice survival ([1]; therapeutically treated mice (increase from 22)): 50 days; immune cells within the spleen of treated mice ([1]; tumor bearing mice treated with HEI3090): unable to detect any modification of immune cells within the spleen; decrease of the EC50 (BzATP) in the presence of HEI3090 ([2]; increasing doses of BzATP, HEI3090 250 nM): 22%; shift of the EC50 for BzATP ([2]; low dose of HEI3090 (250 nM)): shift to the left of the EC50 for BzATP; Topro3 incorporation / effect in splenocytes from P2rx7 KO mice [3]: Topro3 incorporation is lost; also recorded: absence of effect; large pore opening in presence of BzATP ([3]; splenocytes from control mice): potentializes large pore opening in presence of BzATP; increase of Ca influx (Fluo-AM positive cells) [4]: 3 fold; increase of large cation influx (Topro3 positive cells) [4]: 3 fold

Source: patent US11919854B2, “P2RX7 modulators in therapy” (Centre national de la recherche scientifique, priority 2018, dated 2024)
